The record followed here is patent US20230121721A1, “MONOACYLGLYCEROL LIPASE INHIBITORS” (STICHTING HET NEDERLANDS KANKER INSTITUUT - ANTONI VAN …, priority 2020, published 2023).

The assay addresses T1, hMAGL (MAGL-overexpressing membrane preparations from transiently transfected HEK293T cells) (Homo sapiens, UniProt Q99685).
T1 construct: expressed in transfected cells; host or cells: HEK293T (transient transfection), membrane preparations
T1 sequence (Q99685 1-303): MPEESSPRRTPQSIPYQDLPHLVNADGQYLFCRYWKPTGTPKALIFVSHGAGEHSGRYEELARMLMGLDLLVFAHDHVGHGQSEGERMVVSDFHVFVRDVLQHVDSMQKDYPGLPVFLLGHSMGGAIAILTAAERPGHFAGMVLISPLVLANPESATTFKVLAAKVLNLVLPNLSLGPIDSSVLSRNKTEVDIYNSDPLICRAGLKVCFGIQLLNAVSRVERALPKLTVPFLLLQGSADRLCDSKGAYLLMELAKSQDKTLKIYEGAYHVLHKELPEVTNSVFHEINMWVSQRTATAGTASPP
The assay is described as follows: MAGL activity assay (2-AG hydrolysis, glycerol coupled to Amplifu Red fluorescence). Type of assay: biochemical. The following applies: hMAGL-overexpressing HEK293T membranes, 25 μM 2-AG substrate, 20 min. inhibitor incubation. The text has this:
The MAGL activity assay is based on the production of glycerol from 2-arachidonoylglycerol (2-AG) hydrolysis by MAGL-overexpressing membrane preparations from transiently transfected HEK293T cells, as previously reported in van der Wel T et al., “A natural substrate-based fluorescence assay for inhibitor screening on diacylglycerol lipase”, J Lipid Res., 2015, 56(4), 927-35. The produced glycerol is coupled to the oxidation of commercially available Amplifu™ Red (Sigma-Aldrich Chemie N.V., Zwijndrecht, Netherlands) via a multi-enzyme cascade, resulting in a fluorescent signal from the dye resorufin.
Standard assays were performed in HEMNB buffer (50 mM HEPES pH 7.4, 1 mM EDTA, 5 mM MgCl2, 100 mM NaCl, 0.5% (w/v) BSA) in black, flat bottom 96-wells plates. Final protein concentration of membrane preparations from overexpressing hMAGL HEK293T cells was 1.5 μg/mL (0.3 μg per well). Inhibitors were added from 40× concentrated DMSO stocks. […] Final assay concentrations: 0.2 U/mL GK, GPO and HRP, 0.125 mM ATP, 10 μM Amplifu™ Red, 25 μM 2-AG, 5% DMSO, 0.5% ACN in a total volume of 200 μL.
For IC50 determination, the MAGL-overexpressing membranes were incubated with different inhibitor concentrations. Slopes of corrected fluorescence in time were determined in the linear interval of t=10 to t=35 min and then scaled to the corrected positive control of hMAGL-overexpressing membranes treated with vehicle (DMSO) as a 100% activity reference point. The data was exported to GraphPad Prism 5.0 and analysed in a non-linear dose-response analysis with variable slope.

Where only a bound is given, the exact number is not on record here.

As to `C[C@H]1[C@H](C)N(c2cccc(Cl)c2)CCN1C(=O)c1ccc([S+]([O-])CC(=O)C(C)(F)F)c(Cl)c1` (mixture of isomers) [Example 78, (±) 1-((2-Chloro-4-(4-(3-chlorophenyl)-trans-2,3-dimethylpiperazine-1-carbonyl)phenyl)sulfinyl)-3,3-difluorobutan-2-one], the IC50 is 1.48 nM. This lies in the single-digit nanomolar range.
The result for `C[C@H]1[C@H](C)N(c2cccc(Cl)c2)CCN1C(=O)c1ccc([S+]([O-])CC(=O)C(F)(F)c2ccccc2)c(Cl)c1` (mixture of isomers) [Example 80, (±) 3-((2-Chloro-4-(4-(3-chlorophenyl)-trans-2,3-dimethylpiperazine-1-carbonyl)phenyl)sulfinyl)-1,1-difluoro-1-phenylpropan-2-one] reads 87.1 nM; that for `C[C@H]1[C@H](C)N(c2cccc(Cl)n2)CCN1C(=O)c1ccc([S+]([O-])CC(=O)C(C)(F)F)c(Cl)c1` (mixture of isomers) [Example 81, (±) 1-((2-chloro-4-(4-(6-chloropyridin-2-yl)-trans-2,3-dimethylpiperazine-1-carbonyl)phenyl)sulfinyl)-3,3-difluorobutan-2-one], 0.851 nM; that for `CCC(F)(F)C(=O)C[S+]([O-])c1ccc(C(=O)N2CCN(c3cccc(Cl)n3)[C@@H](C)[C@@H]2C)cc1Cl` (mixture of isomers) [Example 82, (±) 1-((2-Chloro-4-(4-(6-chloropyridin-2-yl)-trans-2,3-dimethylpiperazine-1-carbonyl)phenyl)sulfinyl)-3,3-difluoropentan-2-one], 0.123 nM.
Regarding `C[C@H]1[C@H](C)N(c2cc(Cl)ccn2)CCN1C(=O)c1ccc([S+]([O-])CC(=O)C(C)(F)F)c(Cl)c1` (mixture of isomers) [Example 83, (±) 1-((2-Chloro-4-(4-(4-chloropyridin-2-yl)-trans-2,3-dimethylpiperazine-1-carbonyl)phenyl)sulfinyl)-3,3-difluorobutan-2-one], the IC50 was 3.39 nM.
The result for `CCC(F)(F)C(=O)C[S+]([O-])c1ccc(C(=O)N2CCN(c3cc(Cl)ccn3)[C@@H](C)[C@@H]2C)cc1Cl` (mixture of isomers) [Example 84, (±) 1-((2-Chloro-4-(4-(4-chloropyridin-2-yl)-trans-2,3-dimethylpiperazine-1-carbonyl)phenyl)sulfinyl)-3,3-difluoropentan-2-one] reads 2.82 nM; that for `C[C@H]1[C@H](C)N(c2cccc(Cl)c2)CCN1C(=O)c1ccc([S+]([O-])CC(=O)c2cccnc2)c(Cl)c1` (mixture of isomers) [Example 85, (±) 2-((2-Chloro-4-(4-(3-chlorophenyl)-trans-2,3-dimethylpiperazine-1-carbonyl)phenyl)sulfinyl)-1-(pyridin-3-yl)ethan-1-one], 9770 nM; that for `C[C@H]1[C@H](C)N(c2cccc(Cl)c2)CCN1C(=O)c1ccc([S+]([O-])CC(=O)c2ccc(F)cc2)c(Cl)c1` (mixture of isomers) [Example 86, (±) 2-((2-Chloro-4-(4-(3-chlorophenyl)-trans-2,3-dimethylpiperazine-1-carbonyl)phenyl)sulfinyl)-1-(4-fluorophenyl)ethan-1-one], 1910 nM.
The result for `C[C@H]1[C@H](C)N(c2cccc(Cl)c2)CCN1C(=O)c1ccc([S+]([O-])CC(=O)c2cccc(F)c2)c(Cl)c1` (mixture of isomers) [Example 87, (±) 2-((2-Chloro-4-(4-(3-chlorophenyl)-trans-2,3-dimethylpiperazine-1-carbonyl)phenyl)sulfinyl)-1-(3-fluorophenyl)ethan-1-one] reads greater than 10000 nM.
The result for `C[C@H]1[C@H](C)N(c2cccc(Cl)c2)CCN1C(=O)c1ccc([S+]([O-])CC(=O)c2cccnn2)c(Cl)c1` (mixture of isomers) [Example 88, (±) 2-((2-Chloro-4-(4-(3-chlorophenyl)-trans-2,3-dimethylpiperazine-1-carbonyl)phenyl)sulfinyl)-1-(pyridazin-3-yl)ethan-1-one] reads 251 nM; that for `C[C@H]1[C@H](C)N(c2cccc(Cl)c2)CCN1C(=O)c1ccc([S+]([O-])CC(=O)c2cc(F)cc(F)c2)c(Cl)c1` (mixture of isomers) [Example 89, (±) 2-((2-Chloro-4-(4-(3-chlorophenyl)-trans-2,3-dimethylpiperazine-1-carbonyl)phenyl)sulfinyl)-1-(3,5-difluorophenyl)ethan-1-one], 2090 nM; that for `C[C@H]1[C@H](C)N(c2cccc(Cl)c2)CCN1C(=O)c1ccc([S+]([O-])CC(=O)c2ccc(C(F)(F)F)nc2)c(Cl)c1` (mixture of isomers) [Example 90, (±) 2-((2-Chloro-4-(4-(3-chlorophenyl)-trans-2,3-dimethylpiperazine-1-carbonyl)phenyl)sulfinyl)-1-(6-(trifluoromethyl)pyridin-3-yl)ethan-1-one], 813 nM.
Turning to `C[C@H]1[C@H](C)N(c2cccc(Cl)c2)CCN1C(=O)c1ccc([S+]([O-])CC(=O)c2ccc(Cl)c(C(F)(F)F)c2)c(Cl)c1` (mixture of isomers) [Example 91, (±) 1-(4-Chloro-3-(trifluoromethyl)phenyl)-2-((2-chloro-4-(4-(3-chlorophenyl)-trans-2,3-dimethyl-piperazine-1-carbonyl)-phenyl)sulfinyl)ethan-1-one], the IC50 was greater than 10000 nM.
The result for `C[C@H]1[C@H](C)N(c2cccc(Cl)c2)CCN1C(=O)c1ccc([S+]([O-])CC(=O)c2ccc(F)c(C(F)(F)F)c2)c(Cl)c1` (mixture of isomers) [Example 92, (±) 2-((2-Chloro-4-(4-(3-chlorophenyl)-trans-2,3-dimethylpiperazine-1-carbonyl)phenyl)sulfinyl)-1-(4-fluoro-3-(trifluoromethyl)phenyl)ethan-1-one] reads greater than 10000 nM.
The result for `C[C@H]1[C@H](C)N(c2cccc(Cl)c2)CCN1C(=O)c1ccc([S+]([O-])CC(=O)c2cccc(F)c2F)c(Cl)c1` (mixture of isomers) [Example 93, (±) 2-((2-Chloro-4-(4-(3-chlorophenyl)-trans-2,3-dimethylpiperazine-1-carbonyl)phenyl)sulfinyl)-1-(2,3-difluorophenyl)ethan-1-one] reads 575 nM.
Turning to `C[C@H]1[C@H](C)N(c2cccc(Cl)c2)CCN1C(=O)c1ccc([S+]([O-])CC(=O)c2ccc(F)c(F)c2)c(Cl)c1` (mixture of isomers) [Example 94, (±) 2-((2-Chloro-4-(4-(3-chlorophenyl)-trans-2,3-dimethylpiperazine-1-carbonyl)phenyl)sulfinyl)-1-(3,4-difluorophenyl)ethan-1-one], the IC50 is 759 nM.
The result for `C[C@H]1[C@H](C)N(c2cccc(Cl)c2)CCN1C(=O)c1ccc([S+]([O-])CC(=O)c2ccccc2F)c(Cl)c1` (mixture of isomers) [Example 95, (±) 2-((2-Chloro-4-(4-(3-chlorophenyl)-trans-2,3-dimethylpiperazine-1-carbonyl)phenyl)sulfinyl)-1-(2-fluorophenyl)ethan-1-one] reads 1620 nM.
The result for `C[C@H]1[C@H](C)N(c2cccc(Cl)c2)CCN1C(=O)c1ccc([S+]([O-])CC(=O)c2ccnnc2)c(Cl)c1` (mixture of isomers) [Example 96, (±) 2-((2-Chloro-4-(4-(3-chlorophenyl)-trans-2,3-dimethylpiperazine-1-carbonyl)phenyl)sulfinyl)-1-(pyridazin-4-yl)ethan-1-one] reads 708 nM.
In the case of `C[C@H]1[C@H](C)N(c2cccc(Cl)c2)CCN1C(=O)c1ccc([S+]([O-])CC(=O)c2ccc(F)cc2F)c(Cl)c1` (mixture of isomers) [Example 97, (±) 2-((2-Chloro-4-(4-(3-chlorophenyl)-trans-2,3-dimethylpiperazine-1-carbonyl)phenyl)sulfinyl)-1-(2,4-difluorophenyl)ethan-1-one], the IC50 is 234 nM.
Compound `C[C@H]1[C@H](C)N(c2cccc(Cl)c2)CCN1C(=O)c1ccc([S+]([O-])CC(=O)c2ccc(C#N)cc2)c(Cl)c1` (mixture of isomers) [Example 99, (±) 4-(2-((2-Chloro-4-(4-(3-chlorophenyl)-trans-2,3-dimethyl-piperazine-1-carbonyl)phenyl)sulfinyl)acetyl)benzonitrile] showed a half-inhibitory concentration (IC50) of 91.2 nM.
The result for `C[C@H]1[C@H](C)N(c2cccc(Cl)c2)CCN1C(=O)c1ccc([S+]([O-])CC(=O)c2ccncn2)c(Cl)c1` (mixture of isomers) [Example 100, (±) 2-((2-Chloro-4-(4-(3-chlorophenyl)-trans-2,3-dimethylpiperazine-1-carbonyl)phenyl)sulfinyl)-1-(pyrimidin-4-yl)ethan-1-one] reads 87.1 nM.
